Measured values taken from US20030105165A1, “Gap junctions and EDHF” (priority 2001, published 2003).
Read-outs that look alike come from different tables or passages of the source.

What was measured:
[1] = system: sandwich preparations of rabbit iliac artery; test: 'Sandwich' bioassay preparations of iliac artery (endothelium-intact donor ring, denuded detector strip); assay type: cell-based
Source text: ‘Sandwich’ preparations. Rings of iliac artery 2-3 mm wide were denuded of endothelium, cut into strips and pierced ˜2 mm from each end using a Monoject needle (0.9 mm×40 mm). These strips were introduced into the lumen of rings of endothelium-intact iliac artery 4-5 mm wide and the tissues sutured together. Composite preparations were then mounted in a Mulvany Multi Myograph (Danish Myo Technology) with the pierced denuded strips hooked onto the large vessel mountings. Tension was initially set at ˜0.25 g and readjusted during an equilibrium period of 1 h. The preparations were then incubated for 40 min with L-NAME (300 μM) and indomethacin (10 μM), constricted with PE (1 or 3 μM), and concentration-response curves constructed for ACh in the presence/absence of IBMX (20 μM), or A23187 in the presence/absence of IBMX (20 μM) or 2′5′DDA (200 μM).
(§1) Statistical Analysis All data are given as mean±SEM, where n denotes the number of animals studied for each data point, and were compared by the Student's t-test for paired or unpaired data as appropriate. P<0.05 was considered as significant. Concentration-response curves were assessed by one-way analysis of variance (ANOVA) followed by the Bonferroni multiple comparisons test.

[2] = system: smooth muscle cAMP levels; test: Radioimmunoassay of cAMP in iliac artery rings; assay type: cell-based, rabbit; details: for Increase (elevation) in smooth muscle cAMP levels: rings incubated with L-NAME and indomethacin, endothelium-dependent
Description: (§2) Radioimmunoassay. Multiple rings from the same artery were incubated in oxygenated Holmans buffer containing L-NAME (300 μM) and indomethacin (10 μM) for 40 min at 37° C. in the presence or absence of 18α-GA (100 μM). Rings were frozen in liquid N2 at time points up to 180 s following addition of ACh or A23187 and stored at −70° C. before extraction of cAMP or cGMP in 6% trichloroacetic acid, followed by neutralization with water saturated diethyl ether and subsequent radioimmunoassay (Amersham UK). PE (1 μM) was added 3 min before the initial control point and control experiments were performed with endothelium-denuded rings. Nucleotide levels were expressed relative to protein content (27).

[3] = system: rabbit iliac artery rings; test: EDHF-type relaxation of isolated rabbit iliac artery rings constricted with phenylephrine; assay type: cell-based; details: for EC50: Oryctolagus cuniculus; for Maximal EDHF-type relaxations, % of PE-induced tone: approximate, at concentrations ~3 μM; for Maximal EDHF-type relaxations, % of PE-induced tone / Maximal EDHF-type relaxation, % of PE-induced tone (control): L-NAME 300 μM + indomethacin 10 μM
Description: Isolated Ring Preparations. Male New Zealand white rabbits (2-2.5 kg) were sacrificed with sodium pentobarbitone (120 mg/kg; i.v.) and the iliac artery removed and transferred to cold Holman's buffer of the following composition (mM): 120 NaCl, 5 KCl, 2.5 CaCl2, 1.3 NaH2PO4, 25 NaHCO3, 11 glucose, and 10 sucrose. […] Endothelium-intact rings were incubated for 40 min with N^G-nitro-L-arginine methyl ester (L-NAME, 300 μM) and indomethacin (10 μM) and following constriction with phenylephrine (PE) cumulative concentration-relaxation curves to ACh or A23187 were constructed. Some preparations were preincubated for 40 min with either 2′5′-dideoxyadenosine (2′5′-DDA, 200 μM), 3-isobutyl-1-methylxanthine (IBMX, 20 μM), 18α-GA (100 μM), glibenclamide (10 μM), the combination of charybdotoxin (100 nM) and apamin (300 nM), or the combination of charybdotoxin (100 nM), apamin (300 nM) and IBMX (20 μM). Concentration-response curves to ACh and A23187 were also constructed for endothelium-denuded rings in the absence/presence of IBMX (20 μM). In experiments with IBMX the concentration of PE used to induce tone was increased from 1 to 3 μM. All reagents were obtained from Sigma, U.K.
as §1

[4] = system: rabbit iliac artery rings; assay type: cell-based; details: for Effect on PE contractions: 2′,5′-DDA 200 μM, glibenclamide 10 μM, charybdotoxin 100 nM plus apamin 300 nM
Description: Isolated Ring Preparations. Male New Zealand white rabbits (2-2.5 kg) were sacrificed with sodium pentobarbitone (120 mg/kg; i.v.) and the iliac artery removed and transferred to cold Holman's buffer of the following composition (mM): 120 NaCl, 5 KCl, 2.5 CaCl2, 1.3 NaH2PO4, 25 NaHCO3, 11 glucose, and 10 sucrose. The vessels were stripped of adherent tissue, and rings 2-3 mm wide cut and suspended in organ chambers containing gassed (95% 02, 5% CO2, pH 7.4) buffer at 37 C. Tension was set at 0.25 g and during an equilibrium period of 1 h the tissues were repeatedly washed with fresh buffer and tension readjusted following stress relaxation. Endothelium-intact rings were incubated for 40 min with N^G-nitro-L-arginine methyl ester (L-NAME, 300 μM) and indomethacin (10 μM) and following constriction with phenylephrine (PE) cumulative concentration-relaxation curves to ACh or A23187 were constructed. Some preparations were preincubated for 40 min with either 2′5′-dideoxyadenosine (2′5′-DDA, 200 μM), 3-isobutyl-1-methylxanthine (IBMX, 20 μM), 18α-GA (100 μM), glibenclamide (10 μM), the combination of charybdotoxin (100 nM) and apamin (300 nM), or the combination of charybdotoxin (100 nM), apamin (300 nM) and IBMX (20 μM). Concentration-response curves to ACh and A23187 were also constructed for endothelium-denuded rings in the absence/presence of IBMX (20 μM). In experiments with IBMX the concentration of PE used to induce tone was increased from 1 to 3 μM. All reagents were obtained from Sigma, U.K.

[5] = system: subintimal smooth muscle cells of rabbit iliac artery strips; test: Membrane potential experiments (sharp microelectrode) in iliac artery strips; assay type: cell-based
Description: Membrane Potential Experiments. Iliac artery strips were held adventitia down in an oxygenated (95% O2, 5% CO2) organ chamber by a Harp slice grid (ALA Scientific Instruments, USA) superfused (2 ml/min at 37° C.) with Holmans solution containing 300 μM L-NAME and 10 μM indomethacin. Transmembrane potential was recorded with glass capillary microelectrodes (tip resistance of 60-110 M[…] filled with 3M KCl and connected to the headstage of a SEC-10LX amplifier (NPI Electronic, Germany). Successful impalements were achieved following a sudden negative drop in potential from baseline and a stable signal for at least 2 min. To ensure recordings were made from smooth muscle cells the microelectrode was advanced into the subintima using a PCS-5000 micromanipulator (Burleigh Instruments, UK) until there had been 2-3 such negative deflections. After first obtaining control responses to ACh by direct administration into the organ chamber under conditions of no flow, the strips were washed with fresh buffer before incubation with either 200 μM […] alone or the combination of 200 μM 2′,3′-DDA plus 30 μM IBMX followed by repeat exposure to ACh.

[6] = system: gap junctions in isolated rabbit femoral arteries; test: Dye transfer (calcein AM) from endothelium to media in perfused femoral arteries; assay type: cell-based; details: for Space constant of decay of medial fluorescence: calcein AM, control 8.54 μm; for Dye within the vessel wall after intraluminal perfusion: 10 μM dye perfused through the lumen for 30 min
Description: Dye Transfer. […] In control experiments arteries were perfused with 10 μM calcein, which is membrane impermeable. The vessels were subsequently removed from the myograph and fixed in 0.1 M PBS containing 0.2% glutaraldehyde and 2% formalin for 90 min before cryopreservation in OCT compound (Agar Scientific, […], UK), cooled by liquid N2. Cryosections of transverse rings (10 μm thick) were prepared and mounted onto poly-L-lysine-coated slides under Fluorsave (Calbiochem) and imaged with a TCS four-dimensional confocal laser scanning system (Leica) with the filters set for 490 nm excitation and 525 nm emission. A gallery of several images was collected at 0.5-μm steps for each sample followed by image processing by using […] software to obtain a maximum projection image.

cGMP levels = test: Radioimmunoassay of cGMP in iliac artery rings; assay type: cell-based, rabbit; details: in the presence of L-NAME and indomethacin
Description: as §2

pig coronary artery = details: cited from earlier work
[7] = endothelium-intact rings, L-NAME + indomethacin, control of IBMX / 2′,5′-DDA series, read-out: EC50 of EDHF-type relaxation (control)
[8] = endothelium-intact rings, control of IBMX / 2′,5′-DDA series

C[C@H]1O[C@@H](n2cnc3c(N)ncnc32)C[C@@H]1O [2′,5′-DDA, 2′,5′-dideoxyadenosine]
Maximal relaxation to A23187 in sandwich preparations with 2′,5′-DDA, % of PE-induced tone ([1]; 2′,5′-DDA 200 μM): 18.5±9.2%
Effect on transient peak in cAMP levels evoked by ACh ([2]; 2′,5′-DDA 200 μM, ACh 3 μM): abolished
Maximal relaxation to A23187 in presence of 2′,5′-DDA, % of PE-induced tone ([3]; 2′,5′-DDA 200 μM, A23187-evoked, endothelium-intact rings): 40.3±8.3%
Maximal relaxation to ACh in presence of 2′,5′-DDA ([3]; 2′,5′-DDA 200 μM, ACh-evoked, endothelium-intact rings): 11.0±1.9%
Effect on PE contractions [4]: unaffected

Nc1ncnc2c1ncn2[C@H]1CC[C@@H](CO)O1 [2′, 3′-DDA, 2′,3′-dideoxyadenoine]
Attenuation of transmission of electrical changes in endothelial membrane potential into subintimal smooth muscle cells ([5]; 200 μM, ACh-evoked): ~75%

Nc1nc2c(nc(Br)n2[C@@H]2O[C@@H]3COP(=O)(O)O[C@H]3[C@H]2O)c(=O)[nH]1 [8-bromo-cGMP]
Space constant of decay of medial fluorescence ([6]; 1 mM nucleotide analogue): 8.39 ± 0.44 μm

CC1(C)[C@@H](O)CC[C@]2(C)[C@H]3C(=O)C=C4[C@H]5C[C@@](C)(C(=O)O)CC[C@]5(C)CC[C@@]4(C)[C@]3(C)CC[C@@H]12 [18α-GA, 18α-glycyrrhetinic acid]
Effect on nucleotide (cAMP) accumulation evoked by A23187 ([2]; 18α-GA 100 μM, A23187 3 μM): no significant effect
Effect on transient rise in cAMP levels evoked by ACh ([2]; 18α-GA 100 μM, ACh 3 μM): abolished
Effect on EDHF-type relaxations evoked by A23187 ([3]; 18α-GA 100 μM): had no effect
Effect on EDHF-type relaxations evoked by ACh ([3]; 18α-GA 100 μM): effectively abolished

CNc1ccc2oc(C[C@H]3O[C@@]4(CC[C@H]3C)O[C@H]([C@H](C)C(=O)c3ccc[nH]3)[C@H](C)C[C@H]4C)nc2c1C(=O)O [A23187]
Maximal EDHF-type relaxation in sandwich preparations, % of PE-induced tone ([1]; L-NAME 300 μM + indomethacin 10 μM, no modulator): 52.0±8.0%
EC50 ([1]; Oryctolagus cuniculus, read-out: EC50 of relaxation in sandwich preparations): 240 ± 40 nM
Time of peak in cAMP levels ([2]; agonist 3 μM, endothelium-intact rings, L-NAME 300 μM + indomethacin 10 μM): 40 to 50 s
Change of cAMP level in endothelium-denuded preparations ([2]; endothelium-denuded, basal 3.97±0.49 pmol/mg protein): did not significantly increase
Increase (elevation) in smooth muscle cAMP levels [2]: 1.5 fold
EC50 ([3]; read-out: EC50 of A23187 relaxation (control of charybdotoxin/apamin series)): 291 ± 128 nM
EC50 [3, 7]: 328 ± 123 nM
Maximal EDHF-type relaxations, % of PE-induced tone [3]: ~40%
Relaxation after endothelial denudation ([3]; endothelium-denuded rings): abolished
Relaxation in endothelium-denuded rings incubated with IBMX, % of PE-induced tone ([3]; endothelium-denuded rings, IBMX 20 μM): 21.7±3.6%
Maximal EDHF-type relaxation, % of PE-induced tone (control) [3, 8]: 50.2±5.6%
Maximal relaxation to A23187, % of PE-induced tone (control of charybdotoxin/apamin series) ([3]; endothelium-intact rings, L-NAME + indomethacin): 50.0±5.8%
Effect on cGMP levels (cGMP levels): unaltered

CC(=O)OCC[N+](C)(C)C [ACh, acetylcholine]
Increase (elevation) in smooth muscle cAMP levels [2]: 1.5 fold
Subintimal hyperpolarization sustained below baseline ([5]; 3 μM Ach, intact endothelium): ~20 mV
EC50 [3, 7]: 555 ± 121 nM
Maximal EDHF-type relaxations, % of PE-induced tone [3]: ~40%
Maximal EDHF-type relaxation, % of PE-induced tone (control) [3, 8]: 36.0±5.0%

CC(C)Cn1c(=O)n(C)c(=O)c2[nH]cnc21 [IBMX, 3-isobutyl-1-methylxanthine]
Space constant of decay of medial fluorescence ([6]; 20 μM IBMX): 11.50±0.80 μm and ≈ 12 μm
Maximal relaxation to A23187 in sandwich preparations with IBMX ([1]; IBMX 20 μM): 70.0±6.50%
Reversal of the 2′,3′-DDA block of hyperpolarization ([5]; IBMX 30 μM after 200 μM 2′,3′-DDA): completely reversed
Maximal relaxation to A23187 in presence of IBMX ([3]; IBMX 20 μM, A23187-evoked, endothelium-intact rings, control 50.2%): 73.0 ± 8.5%
Maximal relaxation to ACh in presence of IBMX ([3]; IBMX 20 μM, ACh-evoked, endothelium-intact rings, control 36.0%): 65.5±4.5%

CNC[C@H](O)c1cccc(O)c1 [PE, phenylephrine]
PE-evoked constrictions ([4]; 1 μM PE, L-NAME 300 μM and indomethacin 10 μM, intact endothelium, pooled data): 2.0 ± 0.1 g
Initial tension restored by PE in presence of IBMX ([4]; 3 μM PE, IBMX 20 μM, pooled data): 1.8 ± 0.1 g

O=C(O)CN(CC(=O)O)Cc1cc2c(cc1O)Oc1cc(O)c(CN(CC(=O)O)CC(=O)O)cc1C21OC(=O)c2ccccc21 [calcein]
Dye within the vessel wall after intraluminal perfusion [6]: only autofluorescence of the internal elastic lamina was evident

COc1cc2c3cc1Oc1cc(ccc1O)C[C@@H]1c4c(cc(OC)c(O)c4Oc4ccc(cc4)C[C@@H]3N(C)CC2)CC[N+]1(C)C [d-tubocurarine]
Effect on endothelial hyperpolarization evoked by 0.5 μM A23187 (pig coronary artery): abolished
Effect on mechanical relaxation and endothelium and smooth muscle hyperpolarizations evoked by substance P (pig coronary artery): inhibited
Effect on relaxation and smooth muscle hyperpolarization evoked by 0.5 μM A23187 (pig coronary artery): unaffected

COc1ccc(Cl)cc1C(=O)NCCc1ccc(S(=O)(=O)NC(=O)NC2CCCCC2)cc1 [glibenclamide]
Effect on EDHF-type relaxations evoked by A23187 ([3]; glibenclamide 10 μM): did not significantly affect
Effect on EDHF-type relaxations evoked by ACh ([3]; glibenclamide 10 μM): did not significantly affect
Effect on PE contractions [4]: unaffected

calcein AM
Dye within the vessel wall after intraluminal perfusion [6]: detected within the vessel wall
Space constant of decay of medial fluorescence (control conditions) ([6]; calcein AM 10 μM, L-NAME + indomethacin): 8.54±0.39 μm
